Results from ChEMBL document CHEMBL5608161, “Identification of 4-(6-((2-methoxyphenyl)amino)pyrazin-2-yl)benzoic acids as CSNK2A inhibitors with antiviral activity and improved selectivity over PIM3” (Bioorg Med Chem Lett, 2024).
Active and inactive are the calls of the source. The calls are words filed in the database; no cut-off is given here.

Columns and labels:
HEK293 = experiment: Inhibition of Nano Luc-fused CSNK2A (unknown origin) expressed in HEK293 cells using NanoGlo as substrate at 10 uM by NanoBRET In-cell target engagement assay; assay type: cell-based; settings: Homo sapiens
cells = settings: Homo sapiens, HEK293
Description: Inhibition of Nano Luc-fused CSNK2A (unknown origin) expressed in HEK293 cells using NanoGlo as substrate by NanoBRET In-cell target engagement assay

Murine hepatitis virus = experiment: microbe, parasite or virus in culture; settings: Murine coronavirus, DB
[1] = target: Death-associated protein kinase 3 (Homo sapiens) (UniProt O43293); experiment: Binding affinity to DAPK3 (unknown origin) assessed as melting temperature by thermal shift assay
Death-associated protein kinase 3 (Homo sapiens), sequence (O43293 whole entry, looked up): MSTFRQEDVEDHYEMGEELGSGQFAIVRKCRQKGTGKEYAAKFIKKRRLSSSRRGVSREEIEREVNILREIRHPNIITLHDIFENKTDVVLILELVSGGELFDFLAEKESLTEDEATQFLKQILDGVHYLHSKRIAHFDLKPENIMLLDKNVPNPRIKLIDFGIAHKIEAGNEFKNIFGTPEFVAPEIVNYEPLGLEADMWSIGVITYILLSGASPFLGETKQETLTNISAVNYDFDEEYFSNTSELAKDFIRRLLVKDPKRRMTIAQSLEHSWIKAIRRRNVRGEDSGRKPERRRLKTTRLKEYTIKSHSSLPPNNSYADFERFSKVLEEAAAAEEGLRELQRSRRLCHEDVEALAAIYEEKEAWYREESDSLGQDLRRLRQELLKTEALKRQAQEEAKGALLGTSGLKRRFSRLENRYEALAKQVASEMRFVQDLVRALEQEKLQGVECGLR

[2] = target: Serine/threonine-protein kinase pim-1 (Homo sapiens) (UniProt P11309); experiment: Binding affinity to PIM1 (unknown origin) assessed as melting temperature by thermal shift assay
Serine/threonine-protein kinase pim-1 (Homo sapiens), sequence (P11309 whole entry, looked up): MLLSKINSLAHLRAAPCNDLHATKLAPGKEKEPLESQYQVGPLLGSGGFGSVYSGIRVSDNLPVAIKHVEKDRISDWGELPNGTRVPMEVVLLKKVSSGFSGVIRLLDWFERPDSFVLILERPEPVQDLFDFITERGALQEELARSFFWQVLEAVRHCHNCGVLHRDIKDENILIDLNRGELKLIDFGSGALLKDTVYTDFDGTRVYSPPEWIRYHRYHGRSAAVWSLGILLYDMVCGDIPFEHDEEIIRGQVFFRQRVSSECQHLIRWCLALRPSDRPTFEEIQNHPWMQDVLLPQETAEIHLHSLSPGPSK

[3] = target: BMP-2-inducible protein kinase (Homo sapiens) (UniProt Q9NSY1); experiment: Binding affinity to BIKE (unknown origin) assessed as melting temperature by thermal shift assay
BMP-2-inducible protein kinase (Homo sapiens), sequence (Q9NSY1 whole entry, looked up): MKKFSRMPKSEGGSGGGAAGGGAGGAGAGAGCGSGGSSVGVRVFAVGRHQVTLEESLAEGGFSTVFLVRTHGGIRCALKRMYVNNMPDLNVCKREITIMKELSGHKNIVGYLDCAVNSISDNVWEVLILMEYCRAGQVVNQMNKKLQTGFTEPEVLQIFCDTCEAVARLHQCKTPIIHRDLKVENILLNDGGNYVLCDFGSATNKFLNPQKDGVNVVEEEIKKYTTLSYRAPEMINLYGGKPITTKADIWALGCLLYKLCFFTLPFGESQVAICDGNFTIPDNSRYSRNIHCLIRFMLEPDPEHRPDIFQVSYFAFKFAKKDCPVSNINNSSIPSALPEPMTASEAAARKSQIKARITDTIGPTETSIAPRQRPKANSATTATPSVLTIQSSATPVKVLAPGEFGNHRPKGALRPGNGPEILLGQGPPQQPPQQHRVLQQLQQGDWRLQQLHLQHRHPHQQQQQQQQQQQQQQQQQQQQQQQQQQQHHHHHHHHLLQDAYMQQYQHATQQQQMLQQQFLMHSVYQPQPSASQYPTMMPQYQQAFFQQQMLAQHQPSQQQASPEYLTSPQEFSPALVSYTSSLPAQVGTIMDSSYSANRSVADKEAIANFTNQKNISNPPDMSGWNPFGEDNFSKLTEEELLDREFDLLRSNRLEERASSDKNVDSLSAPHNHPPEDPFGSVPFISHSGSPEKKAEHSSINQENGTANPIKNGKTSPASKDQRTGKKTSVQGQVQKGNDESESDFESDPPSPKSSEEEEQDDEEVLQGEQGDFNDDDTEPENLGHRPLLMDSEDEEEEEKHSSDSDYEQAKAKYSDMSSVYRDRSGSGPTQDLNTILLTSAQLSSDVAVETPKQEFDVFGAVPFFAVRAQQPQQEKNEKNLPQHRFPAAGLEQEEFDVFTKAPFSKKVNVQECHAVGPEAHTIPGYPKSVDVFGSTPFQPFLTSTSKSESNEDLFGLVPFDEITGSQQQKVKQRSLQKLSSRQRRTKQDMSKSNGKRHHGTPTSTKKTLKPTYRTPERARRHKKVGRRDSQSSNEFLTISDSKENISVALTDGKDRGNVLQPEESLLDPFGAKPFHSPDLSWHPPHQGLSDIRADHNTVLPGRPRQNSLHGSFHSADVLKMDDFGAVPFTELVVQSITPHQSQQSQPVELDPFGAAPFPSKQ

[4] = target: T1, Mitogen-activated protein kinase 15 (Homo sapiens) (UniProt Q8TD08); experiment: Binding affinity to MAPK15 (unknown origin) assessed as melting temperature by thermal shift assay
T1 sequence (whole entry): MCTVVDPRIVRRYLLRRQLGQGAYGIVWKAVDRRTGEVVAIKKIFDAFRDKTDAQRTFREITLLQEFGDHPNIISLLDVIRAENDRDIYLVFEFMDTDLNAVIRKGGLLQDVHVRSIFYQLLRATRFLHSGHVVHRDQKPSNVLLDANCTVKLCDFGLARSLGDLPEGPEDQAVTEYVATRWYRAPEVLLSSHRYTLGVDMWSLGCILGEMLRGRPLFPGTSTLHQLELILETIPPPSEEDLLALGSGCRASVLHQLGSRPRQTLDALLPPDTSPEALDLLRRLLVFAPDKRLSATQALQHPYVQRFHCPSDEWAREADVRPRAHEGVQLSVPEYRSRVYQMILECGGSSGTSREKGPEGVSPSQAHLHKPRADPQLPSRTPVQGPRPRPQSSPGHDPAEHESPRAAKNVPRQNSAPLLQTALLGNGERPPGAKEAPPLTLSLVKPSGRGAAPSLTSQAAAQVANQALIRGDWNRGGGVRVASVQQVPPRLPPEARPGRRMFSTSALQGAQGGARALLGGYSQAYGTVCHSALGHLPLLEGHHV

[5] = target: T2, Dual specificity tyrosine-phosphorylation-regulated kinase 2 (Homo sapiens) (UniProt Q92630); experiment: Binding affinity to DYRK2 (unknown origin) assessed as melting temperature by thermal shift assay
T2 sequence (whole entry): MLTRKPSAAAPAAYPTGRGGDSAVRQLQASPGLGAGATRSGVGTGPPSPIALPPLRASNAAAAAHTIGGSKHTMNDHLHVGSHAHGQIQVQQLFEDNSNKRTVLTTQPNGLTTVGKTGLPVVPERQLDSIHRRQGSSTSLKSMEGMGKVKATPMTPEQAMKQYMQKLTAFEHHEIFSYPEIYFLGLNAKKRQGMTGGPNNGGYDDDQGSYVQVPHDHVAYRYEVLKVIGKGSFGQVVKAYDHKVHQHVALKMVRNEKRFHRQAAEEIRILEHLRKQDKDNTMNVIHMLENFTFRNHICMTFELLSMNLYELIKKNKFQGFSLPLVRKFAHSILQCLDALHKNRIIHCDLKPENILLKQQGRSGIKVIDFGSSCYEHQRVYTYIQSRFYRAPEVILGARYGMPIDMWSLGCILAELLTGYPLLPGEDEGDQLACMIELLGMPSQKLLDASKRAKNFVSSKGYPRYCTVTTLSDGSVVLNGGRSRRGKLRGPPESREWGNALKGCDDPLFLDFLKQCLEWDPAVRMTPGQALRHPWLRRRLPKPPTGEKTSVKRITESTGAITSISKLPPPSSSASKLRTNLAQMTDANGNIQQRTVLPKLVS

Structure (SMILES)	IC50 (cells)	inhibition (HEK293)	further results
CC(C)Nc1ccc2cnn(-c3cncc(-c4ccc(C(N)=O)cc4)n3)c2c1	–	inactive	–
COc1cc(-c2cncc(-n3ncc4ccc(NC(C)C)cc43)n2)ccc1C(=O)O	–	inactive	–
CC(C)C(=O)OC[C@H]1O[C@@H](n2cc/c(=N\O)[nH]c2=O)[C@H](O)[C@@H]1O [MOLNUPIRAVIR]	–	–	IC50 (Murine hepatitis virus): 1400 nM
CC(C)Nc1ccc2cnn(-c3cncc(-c4ccc(S(N)(=O)=O)cc4)n3)c2c1	–	inactive	–
COc1ccc(OC(C)C)cc1Nc1cncc(-c2ccc(C(=O)O)cc2)n1	–	–	Tm [1]: > 9 °C; Tm [2]: > 9 °C; Tm [3]: > 9 °C; Tm [4]: > 9 °C; Tm [5]: > 9 °C

Further lines, with some results ahead:

IC50 (cells)	Structure (SMILES)	inhibition (HEK293)	further results
260 nM	CC(C)Nc1ccc2cnn(-c3cncc(-c4ccc(C(=O)O)c(Cl)c4)n3)c2c1	–	–
4020 nM	CC(=O)Nc1ccc2cnn(-c3cncc(-c4ccc(C(=O)O)cc4)n3)c2c1	–	–
2200 nM	O=C(O)c1ccc(-c2cncc(-n3ncc4ccc(NC5CCCC5)cc43)n2)cc1	–	–
2600 nM	O=C(O)c1ccc(-c2cncc(-n3ncc4ccc(NCCN5CCOCC5)cc43)n2)cc1	–	–
